Laboratory results from the NIST ThermoML archive (doi:10.1016/j.fluid.2008.03.004).

Assay: xn = mol fraction of the nth substance listed
Settings: 101 kPa, Liquid; for speed of sound: Sing-around technique in a fixed-path interferometer

COC(C)(C)C [2-methoxy-2-methylpropane] + Cc1ccc(C)cc1
Settings	mass density [kg/m3]	speed of sound [m/s]
288.15 K, x1 = 0.051	859.904	1337.8
288.15 K, x1 = 0.111	853.391	1325
288.15 K, x1 = 0.199	843.55	1302.9
288.15 K, x1 = 0.297	832.629	1278.6
288.15 K, x1 = 0.394	821.398	1253
288.15 K, x1 = 0.5	808.782	1223.9
288.15 K, x1 = 0.591	797.744	1199.5
288.15 K, x1 = 0.7	784.294	1169.8
288.15 K, x1 = 0.799	771.481	1140.7
288.15 K, x1 = 0.898	758.534	1112.1
288.15 K, x1 = 0.949	751.828	1096.4
288.15 K, x1 = 1	744.861	1083.4
290.65 K, x1 = 0.051	857.719	1327.2
290.65 K, x1 = 0.111	851.187	1314.2
290.65 K, x1 = 0.199	841.317	1292.2
290.65 K, x1 = 0.297	830.36	1267.7
290.65 K, x1 = 0.394	819.092	1242
290.65 K, x1 = 0.5	806.435	1212.8
290.65 K, x1 = 0.591	795.358	1188.4
290.65 K, x1 = 0.7	781.856	1158.4
290.65 K, x1 = 0.799	768.993	1129.2
290.65 K, x1 = 0.898	755.997	1100.5
290.65 K, x1 = 0.949	749.262	1084.7
290.65 K, x1 = 1	742.259	1071.6
293.15 K, x1 = 0.051	855.534	1316.8
293.15 K, x1 = 0.111	848.983	1303.7
293.15 K, x1 = 0.199	839.08	1281.6
293.15 K, x1 = 0.297	828.088	1257
293.15 K, x1 = 0.394	816.783	1231.1
293.15 K, x1 = 0.5	804.082	1201.9
293.15 K, x1 = 0.591	792.963	1177.3
293.15 K, x1 = 0.7	779.412	1147.2
293.15 K, x1 = 0.799	766.5	1117.9
293.15 K, x1 = 0.898	753.452	1089
293.15 K, x1 = 0.949	746.689	1073.2
293.15 K, x1 = 1	739.654	1060
295.65 K, x1 = 0.051	853.348	1306.5
295.65 K, x1 = 0.111	846.775	1293.1
295.65 K, x1 = 0.199	836.841	1271
295.65 K, x1 = 0.297	825.813	1246.2
295.65 K, x1 = 0.394	814.47	1220.2
295.65 K, x1 = 0.5	801.723	1191
295.65 K, x1 = 0.591	790.564	1166.2
295.65 K, x1 = 0.7	776.96	1135.9
295.65 K, x1 = 0.799	763.998	1106.6
295.65 K, x1 = 0.898	750.898	1077.5
295.65 K, x1 = 0.949	744.102	1061.7
295.65 K, x1 = 1	737.036	1048.5
298.15 K, x1 = 0.051	851.161	1296.3
298.15 K, x1 = 0.111	844.568	1282.7
298.15 K, x1 = 0.199	834.598	1260.5
298.15 K, x1 = 0.297	823.534	1235.5
298.15 K, x1 = 0.394	812.151	1209.4
298.15 K, x1 = 0.5	799.359	1180.1
298.15 K, x1 = 0.591	788.159	1155.2
298.15 K, x1 = 0.7	774.504	1124.7
298.15 K, x1 = 0.799	761.487	1095.3
298.15 K, x1 = 0.898	748.333	1066
298.15 K, x1 = 0.949	741.507	1050.2
298.15 K, x1 = 1	734.406	1036.9
300.65 K, x1 = 0.051	848.97	1286.1
300.65 K, x1 = 0.111	842.356	1272.2
300.65 K, x1 = 0.199	832.351	1249.9
300.65 K, x1 = 0.297	821.251	1224.8
300.65 K, x1 = 0.394	809.83	1198.7
300.65 K, x1 = 0.5	796.99	1169.2
300.65 K, x1 = 0.591	785.75	1144.2
300.65 K, x1 = 0.7	772.04	1113.5
300.65 K, x1 = 0.799	758.97	1084
300.65 K, x1 = 0.898	745.759	1054.6
300.65 K, x1 = 0.949	738.9	1038.8
300.65 K, x1 = 1	731.766	1025.4
303.15 K, x1 = 0.051	846.775	1275.9
303.15 K, x1 = 0.111	840.14	1261.8
303.15 K, x1 = 0.199	830.102	1239.4
303.15 K, x1 = 0.297	818.963	1214.2
303.15 K, x1 = 0.394	807.503	1187.9
303.15 K, x1 = 0.5	794.615	1158.4
303.15 K, x1 = 0.591	783.333	1133.2
303.15 K, x1 = 0.7	769.567	1102.4
303.15 K, x1 = 0.799	756.446	1072.8
303.15 K, x1 = 0.898	743.176	1043.3
303.15 K, x1 = 0.949	736.284	1027.4
303.15 K, x1 = 1	729.112	1013.9
305.65 K, x1 = 0.051	–	1265.7
305.65 K, x1 = 0.111	–	1251.5
305.65 K, x1 = 0.199	–	1228.9
305.65 K, x1 = 0.297	–	1203.5
305.65 K, x1 = 0.394	–	1177.3
305.65 K, x1 = 0.5	–	1147.6
305.65 K, x1 = 0.591	–	1122.3
305.65 K, x1 = 0.7	–	1091.3
305.65 K, x1 = 0.799	–	1061.6
305.65 K, x1 = 0.898	–	1031.9
305.65 K, x1 = 0.949	–	1016
305.65 K, x1 = 1	–	1002.4
